Reference: US20210073352A9, “SYSTEM AND METHOD FOR DRUG TARGET AND BIOMARKER DISCOVERY AND DIAGNOSIS USING A MULTIDIMENSIONAL MULTISCALE MODULE MAP” (Data4Cure, Inc., priority 2015, published 2021)
Entries after “also recorded” stand apart in the source; their conditions may differ.

Test system: 504 cancer cell lines
Assay: Drug sensitivity (IC50 index) of cancer cell lines with versus without a mutation in a module, compared by T-test
Assay type: cell-based
Details: for T-Statistic, sensitivity to drug vs mutation in module: T-test of IC50 scores, cell lines with vs without mutation
Source text: An inference engine can be used to identify an association between drug sensitivity of a sample and module activity or mutation status. For example, by using a statistical test to compare the IC 50 indexes or other measures of drug sensitivity known to those skilled in the art, for two or more classes of samples determined by the presence or absence of a mutation within a module of interest or determined by a module feature (e.g. high or low activity). A statistical test, such as, for example, a T-test or Wilcoxon test or another test known to those skilled in the art can be used to compare the IC50 scores across two sets of samples. By way of example and not of limitation, an ANOVA analysis can be used to compare such scores over two or more classes of samples.
Change in drug sensitivity conditional on sample class determined by module activity or mutation status can be computed, for example, by using a statistical test by comparing, for example, the IC 50 indexes or other measures of drug sensitivity known to those skilled in the art, for two or more classes of samples. A statistical test, such as, for example, a T-test or Wilcoxon test or another test known to those skilled in the art can be used to compare the IC50 scores across two sets of samples. By way of example and not of limitation, an ANOVA analysis can be used to compare such scores over two or more classes of samples.
The Broad GDAC Firehose provides publicly-available preprocessed TCGA level 3 data and level 4 analyses packaged in a form amenable to immediate algorithmic intake (Marx, V. et al. Nat. Methods 10, 293-297 (2013); incorporated by reference in its entirety). From this resource gene mutations were obtained, copy-number variants and mRNA expression levels (microarray and RNAseq) for human subjects as well as selected clinical data such as overall patient survival and the list of administered oncology drugs for each patient were also obtained. Molecular data (including somatic mutations) as well as drug sensitivity data for 504 cancer cell lines were obtained, deposited and made publicly available by the Sage Bionetworks Synapse platform (Friend, S. et al. Cancer Discov. 2, 658 (2012); hereby incorporated by reference in its entirety).
A multidimensional multiscale map was generated where module colors indicate the change in drug sensitivity depending on the mutation status of a given module (i.e. module can contain a mutation in one of the genes or not) [FIG. 11]. The change is computed by comparing drug sensitivity for samples with or without mutations within genes belonging to a module. Drug sensitivity was measured by the IC 50 index (Soothill, J. S. et al. J. Antimicrob. Chemother. 29, 137-139 (1992); hereby incorporated by reference in its entirety). A T-test was used to compare the IC50 scores across two sets of samples. […] Cell lines with a relevant mutation are indicated as “1” in the boxplot and tend to have lower IC 50 values indicating higher sensitivity to AZD6244.

[1] = mutations in genes of module 16157
[2] = mutations in genes of module 16873
[3] = mutations in genes of module 17552
[4] = mutations in genes of module 17611

Structure (SMILES) | change in drug sensitivity with module mutation (module number 17454 as printed, FIG. 11) | T-Statistic, sensitivity to drug vs mutation in module (mutation in module 16157) | T-Statistic, sensitivity to drug vs mutation in module (mutation in module 16873) | T-Statistic, sensitivity to drug vs mutation in module (mutation in module 17552) | T-Statistic, sensitivity to drug vs mutation in module (mutation in module 17611) | change in drug sensitivity with module mutation [1] | change in drug sensitivity with module mutation [2] | change in drug sensitivity with module mutation [3] | change in drug sensitivity with module mutation [4]
Cn1cnc2c(F)c(Nc3ccc(Br)cc3Cl)c(C(=O)NOCCO)cc21 [AZD6244] | increased sensitivity | −6.876 | −9.937 | −8.56 | −7.071 | more sensitive | more sensitive | increased sensitivity; also recorded: more sensitive | more sensitive
O=C(NOC[C@H](O)CO)c1ccc(F)c(F)c1Nc1ccc(I)cc1F [PD.0325901] |  | −6.692 | −10.52 | −8.774 | −7.111 | more sensitive | more sensitive | more sensitive | more sensitive
